Data as given in US9085520B2, “Composition for treating diabetes and metabolic diseases and a preparation method thereof” (KAOHSIUNG MEDICAL UNIVERSITY, priority 2011, dated 2015).
Where “and” joins values, the source holds several entries; their conditions need not be identical. Equal values may be shown once.

system: 3T3-L1 adipocytes; test: glucose consumption (remaining glucose) in culture medium of 3T3-L1 adipocytes; assay type: cell-based; conditions: 30 μg/ml; culture medium of 3T3-L1 adipocytes after 24 hours; means ± SD, N = 3; control 310 ± 4.0
Procedure: After precursor adipocytes 3T3-L1 were induced as the matured adipocytes, culture medium with glucose (concentration of 300 mg/dl) and drugs were added, and the concentration of the remaining glucose in the culture medium were measured after 24 hours.
Adipose tissues are major sites for postprandial glucose uptake. Therefore, in vitro anti-diabetic screening model based on measuring glucose consumption after 24 hours in culture medium of 3T3-L1 adipocytes was developed. […] Accordingly, 60 chalcone derivatives with and without substitutions on A-ring were examined in our developed model. […] Structure-activity relationship (SAR) analyses data are also determined.

SMILES | remaining glucose concentration in culture medium after 24 hours
O=C(/C=C/c1ccc(OCc2ccccc2)cc1)c1ccccc1O [Compound 25, (E)-3-(4-(benzyloxy)phenyl)-1-(2-hydroxyphenyl)prop-2-en-1-one] | 260 ± 3.8 mg/dL
COc1ccc(/C=C/C(=O)c2cccc(I)c2)cc1 [Compound 56, (E)-1-(3-iodophenyl)-3-(4-methoxyphenyl)prop-2-en-1-one] | 233 mg/dL and 233 ± 3.5 mg/dL
COc1cccc(/C=C/C(=O)c2cccc(Cl)c2)c1 [Compound 44, (E)-1-(3-chlorophenyl)-3-(3-methoxyphenyl)prop-2-en-1-one] | 287 ± 13.4 mg/dL
O=C(/C=C/c1cccc(OCc2ccccc2)c1)c1ccc(O)cc1O [Compound 34, (E)-3-(3-(benzyloxy)phenyl)-1-(2,4-dihydroxyphenyl)prop-2-en-1-one] | 283 ± 2.6 mg/dL
CCc1ccc(CCOc2ccc(CC3SC(=O)NC3=O)cc2)nc1 (stereo not shown) [Pioglitazone, pioglitazone, reference compound] | 230 ± 13.5 mg/dL
O=C(/C=C/c1cccc(OCc2ccccc2)c1)c1ccccc1I [Compound 54, (E)-3-(3-(benzyloxy)phenyl)-1-(2-iodophenyl)prop-2-en-1-one] | 238 mg/dL and 238 ± 1.1 mg/dL
CN(CCOc1ccc(CC2SC(=O)NC2=O)cc1)c1ccccn1 (stereo not shown) [Rosiglitazone, rosiglitazone, reference compound] | 263 ± 23.9 mg/dL
COc1ccc(/C=C/C(=O)c2ccccc2F)cc1 [Compound 28, (E)-1-(2-fluorophenyl)-3-(4-methoxyphenyl)prop-2-en-1-one] | 259 ± 0.3 mg/dL
COc1ccc(/C=C/C(=O)c2ccc(I)cc2)cc1 [Compound 59, (E)-1-(4-iodophenyl)-3-(4-methoxyphenyl)prop-2-en-1-one] | 299 ± 3.8 mg/dL
COc1cccc(/C=C/C(=O)c2cccc(Br)c2)c1 [Compound 14, (E)-1-(3-bromophenyl)-3-(3-methoxyphenyl)prop-2-en-1-one] | 262 ± 2.2 mg/dL
COc1cccc(/C=C/C(=O)c2cc(F)ccc2O)c1 [Compound 35, (E)-1-(5-fluoro-2-hydroxyphenyl)-3-(3-methoxyphenyl)prop-2-en-1-one] | 297 ± 9.3 mg/dL
O=C(/C=C/c1ccccc1)c1cc(Br)ccc1O [Compound 19, (E)-1-(5-bromo-2-hydroxyphenyl)-3-phenylprop-2-en-1-one] | 253 ± 7.8 mg/dL
O=C(/C=C/c1ccccc1)c1cccc(Cl)c1 [Compound 43, (E)-1-(3-chlorophenyl)-3-phenylprop-2-en-1-one] | 291 ± 9.2 mg/dL
O=C(/C=C/c1ccc2c(c1)OCO2)c1ccccc1O [Compound 33, (E)-3-(benzo[d][1,3]dioxol-5-yl)-1-(2-hydroxyphenyl)prop-2-en-1-one] | 279 ± 7.6 mg/dL
O=C(/C=C/c1ccc2c(c1)OCO2)c1ccccc1 [Compound 32, (E)-3-(benzo[d][1,3]dioxol-5-yl)-1-phenylprop-2-en-1-one] | 252 ± 18.1 mg/dL
COc1ccc(/C=C/C(=O)c2ccccc2)cc1 [Compound 7, (E)-3-(4-methoxyphenyl)-1-phenylprop-2-en-1-one] | 261 ± 3.2 mg/dL
COc1ccc(/C=C/C(=O)c2cc(Br)ccc2O)cc1 [Compound 20, (E)-1-(5-bromo-2-hydroxyphenyl)-3-(4-methoxyphenyl)prop-2-en-1-one] | 254 ± 17.6 mg/dL
O=C(/C=C/c1cccc(OCc2ccccc2)c1)c1ccccc1O [Compound 11, (E)-3-(3-(benzyloxy)phenyl)-1-(2-hydroxyphenyl)prop-2-en-1-one] | 256 ± 13.1 mg/dL
COc1ccc(/C=C/C(=O)c2cccc(Br)c2)cc1 [Compound 17, (E)-1-(3-bromophenyl)-3-(4-methoxyphenyl)prop-2-en-1-one] | 248 ± 8.0 mg/dL
O=C(/C=C/c1ccc(O)cc1)c1ccccc1 [Compound 29, (E)-3-(4-hydroxyphenyl)-1-phenylprop-2-en-1-one] | 263 ± 5.6 mg/dL

SMILES | remaining glucose concentration in culture medium after 24 hours
COc1ccc(/C=C/C(=O)c2ccc(Cl)cc2)cc1 [Compound 47, (E)-1-(4-chlorophenyl)-3-(4-methoxyphenyl)prop-2-en-1-one] | 293 ± 7.8 mg/dL
O=C(/C=C/c1ccccc1)c1cccc(Br)c1 [Compound 49, (E)-1-(3-bromophenyl)-3-phenylprop-2-en-1-one] | 299 ± 7.3 mg/dL
O=C(/C=C/c1ccccc1)c1ccc(Br)cc1 [Compound 50, (E)-1-(4-bromophenyl)-3-phenylprop-2-en-1-one] | 295 ± 5.8 mg/dL
O=C(/C=C/c1ccccc1)c1ccc(Cl)cc1 [Compound 46, (E)-1-(4-chlorophenyl)-3-phenylprop-2-en-1-one] | 295 ± 8.8 mg/dL
COc1cccc(/C=C/C(=O)c2ccc(F)cc2)c1 [Compound 42, (E)-1-(4-fluorophenyl)-3-(3-methoxyphenyl)prop-2-en-1-one] | 285 ± 1.6 mg/dL
COc1cccc(/C=C/C(=O)c2cc(Cl)ccc2O)c1 [Compound 38, (E)-1-(5-chloro-2-hydroxyphenyl)-3-(3-methoxyphenyl)prop-2-en-1-one] | 266 ± 23.3 mg/dL
COc1ccc(/C=C/C(=O)c2cccc(F)c2)cc1 [Compound 40, (E)-1-(3-fluorophenyl)-3-(4-methoxyphenyl)prop-2-en-1-one] | 298 ± 15.5 mg/dL
O=C(/C=C/c1ccc(OCc2ccccc2)cc1)c1ccccc1I [Compound 53, (E)-3-(4-(benzyloxy)phenyl)-1-(2-iodophenyl)prop-2-en-1-one] | 249 ± 3.6 mg/dL
COc1ccc(/C=C/C(=O)c2cccc(Cl)c2)cc1 [Compound 45, (E)-1-(3-chlorophenyl)-3-(4-methoxyphenyl)prop-2-en-1-one] | 255 ± 27.1 mg/dL
O=C(/C=C/c1ccccc1)c1cccc(I)c1 [Compound 55, (E)-1-(3-iodophenyl)-3-phenylprop-2-en-1-one] | 294 ± 7.3 mg/dL
COc1cccc(/C=C/C(=O)c2cccc(F)c2)c1 [Compound 41, (E)-1-(3-fluorophenyl)-3-(3-methoxyphenyl)prop-2-en-1-one] | 282 ± 10.1 mg/dL
O=C(/C=C/c1cccc(OCc2ccccc2)c1)c1ccccc1 [Compound 30, (E)-3-(3-(benzyloxy)phenyl)-1-phenylprop-2-en-1-one] | 285 ± 8.2 mg/dL
O=C(/C=C/c1ccccc1)c1ccccc1Br [Compound 48, (E)-1-(2-bromophenyl)-3-phenylprop-2-en-1-one] | 249 ± 20.8 mg/dL
COc1cccc(/C=C/C(=O)c2ccccc2F)c1 [Compound 39, (E)-1-(2-fluorophenyl)-3-(3-methoxyphenyl)prop-2-en-1-one] | 285 ± 4.4 mg/dL
COc1cccc(/C=C/C(=O)c2ccccc2)c1 [Compound 8, (E)-3-(3-methoxyphenyl)-1-phenylprop-2-en-1-one] | 261 ± 7.2 mg/dL
COc1ccc(/C=C/C(=O)c2ccc(Br)cc2)cc1 [Compound 18, (E)-1-(4-bromophenyl)-3-(4-methoxyphenyl)prop-2-en-1-one] | 261 ± 12.7 mg/dL
COc1cccc(/C=C/C(=O)c2ccc(Br)cc2)c1 [Compound 16, (E)-1-(4-bromophenyl)-3-(3-methoxyphenyl)prop-2-en-1-one] | 257 ± 10.0 mg/dL
COc1cccc(/C=C/C(=O)c2cccc(I)c2)c1 [Compound 57, (E)-1-(3-iodophenyl)-3-(3-methoxyphenyl)prop-2-en-1-one] | 246 ± 11.3 mg/dL
O=C(/C=C/c1cccc(OCc2ccccc2)c1)c1cc(Br)ccc1O [Compound 22, (E)-3-(3-(benzyloxy)phenyl)-1-(5-bromo-2-hydroxyphenyl)prop-2-en-1-one] | 252 ± 0.1 mg/dL
O=C(/C=C/c1ccc(OCc2ccccc2)cc1)c1ccccc1 [Compound 31, (E)-3-(4-(benzyloxy)phenyl)-1-phenylprop-2-en-1-one] | 274 ± 13.0 mg/dL

same assay, conditions: 30 μg/ml; culture medium of 3T3-L1 adipocytes after 24 hours; means ± SD, N = 3; control 310 ± 4.0; listed as pioglitazone

SMILES | remaining glucose concentration in culture medium after 24 hours [mg/dL]
CCc1ccc(CCOc2ccc(CC3SC(=O)NC3=O)cc2)nc1 (stereo not shown) [Pioglitazone, pioglitazone, reference compound] | 230

same assay, conditions: 30 μg/ml; culture medium of 3T3-L1 adipocytes after 24 hours; means ± SD, N = 3; control 310 ± 4.0; listed as rosiglitazone

SMILES | remaining glucose concentration in culture medium after 24 hours [mg/dL]
CN(CCOc1ccc(CC2SC(=O)NC2=O)cc1)c1ccccn1 (stereo not shown) [Rosiglitazone, rosiglitazone, reference compound] | 263

same assay, conditions: FIG. 1; 30 μg/ml, medium glucose 300 mg/dl, remaining glucose after 24 hours

SMILES | glucose absorption activity of adipocytes 3T3-L1 (anti-hyperglycemic ability)
COc1cccc(/C=C/C(=O)c2ccc(Br)cc2)c1 [Compound 16, (E)-1-(4-bromophenyl)-3-(3-methoxyphenyl)prop-2-en-1-one] | not significantly different
